Our source for the IC50 values is ChEMBL document CHEMBL4837240 (J Med Chem, 2021).

For assay [1], the system named is MDA-MB-436. In words: Anticancer activity against human MDA-MB-436 cells assessed as cell viability incubated for 48 hrs by MTT assay. As to conditions: MDA-MB-436, 48 h.
Assay [2] concerns MDA-MB-231. In words: Anticancer activity against human MDA-MB-231 cells assessed as cell viability incubated for 48 hrs by MTT assay. As to conditions: MDA-MB-231, 48 h.

Structures are written as SMILES. pIC50: −log10 of the molar value.

On to `C=CS(=O)(=O)N1CCN(c2ncnc3sc(-c4ccc(C#N)cc4)cc23)CC1`, for which the figures for the pIC50 in assay [1] and in assay [2] were 5.04 and 5.09, respectively.

Turning to `C=CS(=O)(=O)N1CCN(c2ncnc3sc(-c4ccnc(Cl)c4)cc23)CC1`, the pIC50 in assay [1] is 4.52; in assay [2], 4.56.

Regarding `C=CS(=O)(=O)N1CCN(c2ncnc3sc(-c4cc(Br)cnc4F)cc23)CC1`, the values for the pIC50 in assay [1] and in assay [2] were 4.55 and 4.62, respectively.

With `C=CS(=O)(=O)N1CCN(c2ncnc3sc(-c4ccc(OC)nc4)cc23)CC1`, the pIC50 was 4.93 in assay [1] and 5.03 in assay [2].

As for `CN1CCN(c2ccc(-c3cc4c(N5CCN(C(=O)Nc6ccc(C#N)cc6)CC5)ncnc4s3)cc2)CC1`, the pIC50 in assay [1] is 5.30; in assay [2], 5.41.

As for `C=CS(=O)(=O)N1CCN(c2ncnc3sc(-c4ccc(N5CCN(C)CC5)cc4)cc23)CC1`, the pIC50 in assay [1] is 5.06; in assay [2] it was 5.12.

Turning to `CN1CCN(c2ccc(-c3cc4c(N5CCN(S(=O)(=O)C6CC6)CC5)ncnc4s3)cc2)CC1`, the pIC50 in assay [1] was 4.98; in assay [2], 4.94.

Consider `C=CS(=O)(=O)N1CCN(c2ncnc3sc(-c4ccc(N5CCOCC5)cc4)cc23)CC1`, for which the pIC50 in assay [1] is 4.75; in assay [2], 4.74.

As to `C=CS(=O)(=O)N1CCN(c2ncnc3ccc(-c4ccccc4)cc23)CC1`, the pIC50 in assay [1] was 4.63; in assay [2], 4.32.

For `C=CS(=O)(=O)N1CCN(c2ncnc3sc(-c4cn(C)nc4C(F)(F)F)cc23)CC1`, the values for the pIC50 in assay [1] and in assay [2] were 4.82 and 4.98, respectively.

As to `CCS(=O)(=O)N1CCN(c2nc(OC[C@H]3CCCN3C)nc3sc(-c4ccc(C(=O)N5CCN(C)CC5)cc4)cc23)CC1`, the pIC50 was 5.46 in assay [1] and 5.38 in assay [2].

With `CN1CCN(c2ccc(-c3cc4c(N5CCN(C(=O)Nc6cc(C(F)(F)F)ccc6F)CC5)ncnc4s3)cc2)CC1`, the pIC50 in assay [1] is 5.05; in assay [2], 5.04.

Regarding `C=CS(=O)(=O)N1CCN(c2nc(OC[C@H]3CCCN3C)nc3sccc23)CC1`, the negative logarithm of the IC50 (pIC50) in assay [1] and in assay [2] was less than 4.30 throughout.

Regarding `CN1CCN(c2ccc(-c3cc4c(N5CCN(C(=O)Nc6ccccc6F)CC5)ncnc4s3)cc2)CC1`, the pIC50 in assay [1] is 4.85; in assay [2] it was 4.99.

As to `C=CS(=O)(=O)N1CCN(c2ncnc3sc(-c4cn(S(=O)(=O)c5ccccc5)c5ccccc45)cc23)CC1`, the pIC50 was 4.42 in assay [1] and 4.39 in assay [2].

With `C=CS(=O)(=O)N1CCN(c2ncnc3sc(-c4ccccc4)cc23)CC1`, the pIC50 in assay [1] is 4.68; in assay [2], 4.27.

Take `C=CS(=O)(=O)N1CCN(c2ncnc3sc(-c4ccc(F)nc4)cc23)CC1`: the pIC50 in assay [1] was 4.76; in assay [2], 4.80.

In the case of `C=CS(=O)(=O)N1CCN(c2ccn3ncc(-c4ccc(N5CCOCC5)cc4)c3n2)CC1`, the figures for the pIC50 in assay [1] and in assay [2] were 4.79 and 4.37, respectively.

Turning to `C=CS(=O)(=O)N1CCN(c2nc(OC[C@H]3CCCN3C)nc3sc(-c4ccc(N5CCN(C)CC5)cc4)cc23)[C@@H](C)C1`, the pIC50 is 5.72 in assay [1] and 5.54 in assay [2].

Regarding `C=CS(=O)(=O)N1CCN(c2ncnc3sc(-c4ccc(C(F)(F)F)cc4)cc23)CC1`, the pIC50 in assay [1] is 5.15; in assay [2], 5.19.

Regarding `CN1CCN(c2ccc(-c3cc4c(N5CCN(C(=O)Nc6ccc(OC(F)(F)F)cc6)CC5)ncnc4s3)cc2)CC1`, the figures for the pIC50 in assay [1] and in assay [2] were 5.20 and 5.34, respectively.

In the case of `CN1CCN(c2ccc(-c3cc4c(N5CCN(C(=O)Nc6ccccc6)CC5)ncnc4s3)cc2)CC1`, the pIC50 was 5.15 in assay [1] and 5.12 in assay [2].

For `CN1CCN(c2ccc(-c3cc4c(N5CCN(C(=O)Nc6ccc(F)cc6F)CC5)ncnc4s3)cc2)CC1`, the figures for the pIC50 in assay [1] and in assay [2] were 4.70 and 4.94, respectively.

With `C=CS(=O)(=O)N1CCN(c2ncnc3sc(-c4ccc(OC)cc4)cc23)CC1`, the pIC50 in assay [1] was 4.55; in assay [2], 4.52.

As for `C=CS(=O)(=O)N1CCN(c2ncnc3sc(-c4ccc(C(=O)N5CCN(C)CC5)cc4)cc23)CC1`, the pIC50 was 5.02 in assay [1] and 5.06 in assay [2].

Consider `C=CS(=O)(=O)N1CCN(c2ccn3ncc(-c4ccccc4)c3n2)CC1`, for which the pIC50 is 4.71 in assay [1] and 4.42 in assay [2].

Take `C=CS(=O)(=O)N1CCN(c2nc(OC[C@H]3CCCN3C)nc3sc(-c4ccc(C(=O)N5CCN(C)CC5)cc4)cc23)[C@@H](C)C1`: the pIC50 in assay [1] was 5.82; in assay [2] it was 5.48.

In the case of `C=CS(=O)(=O)N1CCN(c2nc(OC[C@H]3CCCN3C)nc3sc(-c4ccc(C#N)cc4)cc23)CC1`, the results for the pIC50 in assay [1] and in assay [2] were 5.64 and 5.52, respectively.

As to `CN1CCN(c2ccc(-c3cc4c(N5CCN(S(=O)(=O)c6ccccc6)CC5)nc(OCC5CCCCN5C)nc4s3)cc2)CC1` (stereo not drawn), the values for the pIC50 in assay [1] and in assay [2] were 4.97 and 5.35, respectively.

`CC(C)c1cccc(C(C)C)c1NC(=O)N1CCN(c2ncnc3sc(-c4ccc(N5CCN(C)CC5)cc4)cc23)CC1`: the results for the pIC50 in assay [1] and in assay [2] were 4.95 and 5.07, respectively.

Take `C=CS(=O)(=O)N1CCN(c2ccnc3ccc(-c4ccccc4)cc23)CC1`: the values for the pIC50 in assay [1] and in assay [2] were 4.60 and 4.59, respectively.

Turning to `C=CS(=O)(=O)N1CCN(c2ncnc3sc(C4=CCCCC4)cc23)CC1`, the pIC50 in assay [1] and in assay [2] was less than 4.30 throughout.

`C=CS(=O)(=O)N1CCN(c2nc(OC[C@H]3CCCN3C)nc3sc(-c4ccc(C(=O)N5CCN(C)CC5)cc4)cc23)CC1`: the values for the pIC50 in assay [1] and in assay [2] were 5.46 and 5.38, respectively.

As for `C=CS(=O)(=O)N1CCN(c2ncnc3sc(-c4cccc5ccccc45)cc23)CC1`, the values for the negative logarithm of the IC50 (pIC50) in assay [1] and in assay [2] were 4.55 and 4.63, respectively.

Regarding `C=CC(=O)N1CCN(c2nc(OC[C@H]3CCCN3C)nc3sc(-c4ccc(C(=O)N5CCN(C)CC5)cc4)cc23)CC1`, the pIC50 is 4.91 in assay [1] and 5.27 in assay [2].

With `CN1CCN(c2ccc(-c3cc4c(N5CCN(S(=O)(=O)/C=C/c6ccccc6)CC5)ncnc4s3)cc2)CC1`, the pIC50 in assay [1] is 5.06; in assay [2] it was 5.23.

In the case of `CN1CCN(c2ccc(-c3cc4c(N5CCN(S(=O)(=O)N6CCCCC6)CC5)ncnc4s3)cc2)CC1`, the values for the pIC50 in assay [1] and in assay [2] were 5.12 and 5.09, respectively.

`COc1ccc(NC(=O)N2CCN(c3ncnc4sc(-c5ccc(N6CCN(C)CC6)cc5)cc34)CC2)cc1`: the pIC50 in assay [1] was 4.52; in assay [2], 4.68.

As to `C=CS(=O)(=O)N1CCN(c2ncnc3sc(-c4cccc5ncccc45)cc23)CC1`, the pIC50 in assay [1] was 4.59; in assay [2] it was 4.68.

With `C=CS(=O)(=O)N1CCN(c2ncnc3sc(-c4cccs4)cc23)CC1`, the pIC50 in assay [1] is 4.41; in assay [2] it was 4.47.

Consider `C=CS(=O)(=O)N1CCN(c2ncnc3sc(-c4cnn(Cc5ccccc5)c4)cc23)CC1`, for which the pIC50 was 4.74 in assay [1] and 4.72 in assay [2].

For the compound `C=CS(=O)(=O)N1CCN(c2ncnc3sc(-c4c(C)noc4C)cc23)CC1`, the pIC50 is 4.46 in assay [1] and 4.55 in assay [2].

Take `C=CS(=O)(=O)N1CCN(c2nc(OC[C@H]3CCCN3C)nc3sc(-c4ccc(N5CCN(C)CC5)cc4)cc23)CC1`: the results for the pIC50 in assay [1] and in assay [2] were 6.27 and 6.12, respectively.

For the compound `CN1CCN(c2ccc(-c3cc4c(N5CCN(C(=O)Nc6ccc(Cl)cc6)CC5)ncnc4s3)cc2)CC1`, the figures for the pIC50 in assay [1] and in assay [2] were 5.03 and 5.26, respectively.
